Drawing on US20260159519A1, “IMIDAZOPYRIDAZINE SUBSTITUTED BENZENE RING DERIVATIVE, PREPARATION METHOD, PHARMACEUTICAL COMPOSITION AND USE” (SHANGHAI SIMR BIOTECHNOLOGY CO., LTD., priority 2022, published 2026), this text covers activation and Ki for 5 molecules.

Structures are written as SMILES.

Assay [1] deals with T1, human α1-GABAA receptor (α1-GABAAR-HEK293 cells) (Homo sapiens, UniProt P14867+P18507).
T1 construct: expressed in transfected cells
As to the kind of experiment: Whole-cell patch-clamp electrophysiology, positive allosteric modulatory activity on α1-GABAA receptor. The format is cell-based. The conditions noted are these: read-out: α1-GABAA positive allosteric modulatory activity. Background: Patch clamp records ionic current or voltage across a cell membrane.

Assay [2] concerns the target T2, human α2-GABAA receptor (α2-GABAAR-HEK293 cells) (Homo sapiens, UniProt P18507+P47869).
T2 construct: expressed in transfected cells
Nature of the assay: Whole-cell patch-clamp electrophysiology, positive allosteric modulatory activity on α2-GABAA receptor. The format is cell-based. The conditions noted are these: read-out: α2-GABAA positive allosteric modulatory activity.

The target in assay [3] is T3, human α2-GABAA receptor (BZD site, membrane protein of HEK293 cells) (Homo sapiens, UniProt P18507+P47869).
T3 construct: expressed in transfected cells
Nature of the assay: Radioligand competitive binding assay (3H-flunitrazepam) at the BZD site of the α2-GABAA receptor. To be noted: competition with 1 nM 3H-flunitrazepam; Ki calculated from IC50; read-out: α2 Ki.

As a reminder, the Ki is a dissociation constant, usually derived from enzyme kinetics or from competition with a known ligand. In the case of `CCn1cnc2c(-c3ccc(F)c(-c4cc5oc(=O)n(C)c5cc4OC)c3)cnnc21` [Example 87, 6-(5-(7-Ethyl-7H-imidazo[4,5-c]pyridazin-4-yl)-2-fluorophenyl)-5-methoxy-3-methylbenzo[d]oxazol-2(3H)-one], the activation at 0.1 µM in assay [1] was 3%; in assay [2], 114%. Further, the Ki in assay [3] was 3.38 nM.
Regarding `COc1cc2c(cc1-c1cc(-c3cnnc4c3ncn4C(C)C)ccc1F)OCC(=O)N2C` [Example 36, 7-(2-Fluoro-5-(7-isopropyl-7H-imidazo[4,5-c]pyridazin-4-yl)phenyl)-6-methoxy-4-methyl-2H-benzo[b][1,4]oxazin-3(4H)-one], the figures for the activation at 0.1 µM in assay [1] and in assay [2] were 25% and 137%, respectively. The Ki in assay [3] was 5.73 nM.
The like results for `CCn1cnc2c(-c3ccc(F)c(-c4cc5c(cc4OC)N(C)C(=O)C5)c3)cnnc21` [Example 161, 5-(5-(7-Ethyl-7H-imidazo[4,5-c]pyridazin-4-yl)-2-fluorophenyl)-6-methoxy-1-methyldihydro-2-one] were, in that order, 65%, 118% and 8.7 nM.
In the case of `CCn1cnc2c(-c3ccc(F)c(-c4cc5c(cc4OC)N(C)C(=O)CO5)c3)cnnc21` [Example 42, 7-(5-(7-Ethyl-7H-imidazo[4,5-c]pyridazin-4-yl)-2-fluorophenyl)-6-methoxy-4-methyl-2H-benzo[b][1,4]oxazin-3(4H)-one], the activation at 0.1 µM is 27% in assay [1] and 145% in assay [2]. The Ki in assay [3] was 2.92 nM.
The like results for `CCN1C(=O)COc2cc(-c3cc(-c4cnnc5c4ncn5CC)ccc3F)c(OC)cc21` [Example 31, 4-Ethyl-7-(5-(7-ethyl-7H-imidazo[4,5-c]pyridazin-4-yl)-2-fluorophenyl)-6-methoxy-2H-benzo[b][1,4]oxazin-3(4H)-one] were, in that order, 13%, 96% and 6.85 nM.
